# From PubChem BioAssay AID179 (DTP/NCI, 2004)
# Calls of active or inactive are those of the source.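 How the source made its calls: active means compounds giving half or more protection of infected cells from virus-caused growth loss, again on retest; inactive means the rest.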
# Tested on: CEM cells HIV-1 protection, formazan growth assay
# Test: NCI AIDS Antiviral Assay
# Details: for IC50: measured here: growth of uninfected CEM cells
# How it was run: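 Category rules: moderately active means at least 50% protection on retest, and confirmed active means 100% protection reproducibly. The underlying data came from a formazan growth assay in HIV-1-infected CEM cells.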
Compound,EC50 [µM],IC50 [µM],outcome
CCOP(=O)(OCC)O/C(C)=C\C(=O)OC,> 501,> 501,
Nc1nn2cnnc2s1,,,inactive
CSCCC(N)P(C)(=O)O (stereo not given),> 200,> 200,
O=S(=O)(O)SCCNCC(O)C(O)CNCCSS(=O)(=O)O (stereo not given),> 617,120,
CCC1(CC)C(=O)N(C(=O)c2ccc(Cl)cc2)N(C(=O)c2ccccc2Cl)C1=O,> 200,45.7,
CCOc1ccc(NC2OC(CO)C(O)C(O)C2NC(C)=O)cc1 (stereo not given),> 200,> 200,
CC(C)OP(=O)(OC(C)C)c1nc(-c2ccccc2)n(-c2ccc([N+](=O)[O-])cc2)n1,> 302,219,
S=C(S)N1CCN(c2ccc(Cl)c(Cl)c2)CC1,> 200,26.9,
Cc1[nH]c(=S)c(C#N)c(C)c1C,> 100,> 100,
COc1ccc(C(C#N)NNc2nc(C)cc(=O)[nH]2)cc1OC (stereo not given),> 794,234,
Cc1cc(=O)oc2c(CNC(CC(C)C)C(=O)O)c(O)ccc12 (stereo not given),> 200,> 200,
O=C1CC2C(C1Nc1ccccc1)C1C(=Nc3ccccc3)C(Nc3ccccc3)=CC1N2c1ccccc1 (stereo not given),> 10.2,> 10.2,
Cc1cc(O)c(C=O)c2c1C(=O)Oc1c(COCO/C=C/C(=O)O)c(O)c(C(=O)O)c(C)c1O2,52.5,61.7,
NC(=S)NN=C1CSSC1,> 200,11.7,
COc1ccc(CNc2cc(=O)n(C)c(=O)[nH]2)cc1,> 200,> 200,
CCCCCCCCCCCCCCCCC(c1ccc(O)c(C(=O)O)c1)c1ccc(O)c(C(=O)O)c1,> 229,91.2,
c1ccc(N=C2SC(c3ccccc3)CN2C23CC4CC(CC(C4)C2)C3)cc1 (stereo not given),> 200,> 200,
CCOC(=O)c1ccc(NC(=S)Nc2ncccc2C)cc1,> 200,158,
O=C1N=NC2=C1c1c3ccccc3c(O)n1CC2,> 200,166,
CC(C(=O)O)C1Nc2ccccc2NC1=O (stereo not given),> 200,83.2,
Nc1ccc(S(=O)(=O)NC(=O)c2ccccc2)cc1,> 200,> 200,
CC(C)=CC1C(C(=O)N2CCCCCC2)C1(C)C (stereo not given),> 200,> 200,

Compound,EC50 [µM],IC50 [µM],outcome
CCOCC(C)(CO)CC(C)CO (stereo not given),> 200,> 200,
O=c1[nH]nc(Cc2ccccc2)n1/N=C/c1c(O)ccc2ccccc12,40.7,174,
Cc1cc(=O)[nH]c(CNC(=O)Cc2ccccc2)n1,> 977,> 977,
C/C(CC(=O)Nc1ccc([N+](=O)[O-])cc1)=N\NC(N)=O,> 468,> 468,
CCOC(=O)C1=C(OS(=O)(=O)C(F)(F)F)CCCC1,> 200,> 200,
CCC(C#N)N(Cc1cccc(CN(C(C)=O)C(C#N)CC)c1)C(C)=O (stereo not given),> 200,191,
CC(=O)NCCCCCCNC(C)=O,> 1260,> 1260,
COC(=O)C1(C)C=CC(=O)C2(C)C1C(O)C1OC3CC(c4ccoc4)C(C)=C3C1(C)C2CC(=O)O (stereo not given),> 490,> 490,
C#CC[N+](C)(CC#C)CC#C,,,inactive
C=CCCN(C=O)CCC/C(=C/CCCC)[Si](C)(C)C,> 24.5,> 24.5,
COC(=O)C(CCC(=O)O)N1C(=O)c2ccccc2C1=O (stereo not given),> 200,> 200,
CCCC(=O)OCC1OC2OC(C)(C)OC2C2OC(C)(C)OC12 (stereo not given),,,inactive
Cc1ccc(C(=O)CC2(O)C(=O)Nc3c(C)cc(Cl)cc32)cc1 (stereo not given),> 110,> 110,
O=P1(Cc2ccccc2)c2ccccc2-c2ccccc21,> 200,3.63,
CCN(CC)c1ccc2c(c1)Oc1ccc(N(CC)CC)cc1C21Oc2ccccc2-c2c1c1ccccc1n2CC (stereo not given),,,inactive
CCCCN=C(NCCCC)OC1CCCCC1,> 200,64.6,
Oc1c(N2CCOCC2)cc(-c2cc(N3CCOCC3)c(O)c3ccccc23)c2ccccc12,> 26.3,3.63,
COc1ccccc1NC(=S)/N=C/c1c(O)cc(C)oc1=O,> 200,> 200,
C(=C\c1ccc2ccccc2n1)/c1ccc2c(c1)OCO2,> 200,> 200,
COC(=O)[C@H](Cc1ccccc1)NC(=O)N(CCNCCNC(=O)OC(C)(C)C)c1ccccc1,> 200,> 100,
C=CCOCn1cc(F)c(=O)[nH]c1=O,> 200,> 200,
O=C1OC(O)C(Oc2c(Cl)cccc2Cl)=C1Cl (stereo not given),> 40.7,19.1,

Compound,EC50 [µM],IC50 [µM],outcome
C=C(C)C1C/C=C(/C)CCCC2(CCC3=C(CC(C(=C)C)C/C=C(/C)CCC3)O2)C(=O)C1 (stereo not given),> 30.9,> 30.9,
Cc1cc2nc3n(c2cc1C)C(c1c(F)cccc1F)SC3 (stereo not given),> 44.7,20.9,
COc1ccc(/C=C(\C#N)c2ccccc2)cc1OC,> 70.8,> 70.8,
O=C(c1ccccc1)N1OC2C=CC1CC2 (stereo not given),> 1150,> 1150,
CCOP(=O)(OCC)/C(=C/NC(=S)c1ccncc1)C(=O)OC,126,186,
O=c1c(O)c(-c2ccc(O)cc2)oc2cc(O)cc(O)c12,> 97.7,51.3,
NC(=N\N=C/c1ccc(Cl)cc1)/C(N)=N\N=C/c1ccc(Cl)cc1,,,inactive
CC(O)C(NC(=O)C1CSSCC(NC(=O)C(Cc2ccccc2)NC(=O)OCC2c3ccccc3-c3ccccc32)C(=O)NC(Cc2ccccc2)C(=O)NC(Cc2cn(C=O)c3ccccc23)C(=O)NC(CCCCNC(=O)OCC2c3ccccc3-c3ccccc32)C(=O)NC(C(C)O)C(=O)N1)C(N)=O (stereo not given),> 50.1,6.46,
S=C1NC2=C(COC/C2=C\c2cccc(Cl)c2)C(c2cccc(Cl)c2)N1 (stereo not given),,,inactive
CSC1=N/C(=C\c2ccc(C)cc2)C(=O)N1,> 200,178,
CCOc1ccc(-c2oc(/C=N/NS(=O)(=O)c3ccc(C)cc3)c([N+](=O)[O-])c2-c2ccc(OCC)cc2)cc1,> 3.63,> 3.63,
NC(N)=NS(=O)(=O)c1ccc(Nc2c3ccccc3nc3c(C(=O)Nc4ccc(S(N)(=O)=O)cc4)cccc23)cc1,8.32,31.6,
Nn1c(=S)[nH]c2ccccc2c1=O,> 200,> 200,
COC(=O)c1ccc(CO/N=C(\c2ccccc2)c2ccncc2)cc1,> 200,66.1,
Cc1ccc(C2OC(=O)c3c2ccc2ccccc32)cc1 (stereo not given),> 35.5,> 35.5,
O=C1OC(/C=C/c2ccccc2)C(=O)C1=O (stereo not given),> 1150,> 1150,
COc1ccc(CC(=O)NCCc2ccc(OC)c(OC)c2)cc1Br,> 316,> 316,
O=C(c1cccc(C(=O)c2ccc3c4c(cccc24)C(=O)N(c2ccccc2)C3=O)c1)c1ccc2c3c(cccc13)C(=O)N(c1ccccc1)C2=O,> 200,> 200,
O=C1NC(Cc2ccccc2)C(=O)N2CCCC12 (stereo not given),> 1020,> 1020,
O=S(=O)(O)C(O)CCC(O)S(=O)(=O)O (stereo not given),> 200,40.7,
Cc1ccc(S(=O)(=O)n2cc(/C=C/C#N)c(/C=C/C#N)c2)cc1,,,inactive
Cc1occc1C(=S)Nc1ccc(Cl)c(C(=O)OC(C(C)C)C(C)C)c1,0.0912,13.2,
